Assays:
[1] = tested on: human neuroblastoma IMR-32 cells; experiment: Pseudo-ganglion formation / differentiation of IMR-32 cells (phase-contrast microscope); format: cell-based
From the text: As [^3H] acetyl-coenzyme A (acetyl-CoA), a product manufactured by Amersham was used, and as propidium iodide, acridine orange and choline chloride, products manufactured by Sigma were used. As fetal bovine serum (hereinafter, abbreviated as FCS), a product manufactured by Cansera International was used.
Morphological change of the cells, and the number of pseudo-ganglia formed were observed under a phase-contrast microscope (magnification: 200).

rat glioma C6 cells [2] = experiment: Number of surviving C6 cells after SBA treatment (trypan blue); format: cell-based; conditions: 3 days treatment
Procedure: Rat glioma C6 cells obtained from Japanese Cancer Research Resource Bank (JCRB) were inoculated on a medium in an amount of 1×10^5 cells/schale, cultured for 24 hours. […] Then, the cells were dyed with 0.2% trypan blue, then, the number of surviving cells was counted. The counted value of cell number represents average value±standard error (SE) of three continuous tests [*P<0.00301 and *P<0.00001 (in comparison with contrast)]. The counted value is shown as a bar graph in FIG. 3. This test was conducted in the absence of SBA, as a control test.

rat glioma C6 cells [3] = experiment: Morphological change of C6 cells (phase-contrast microscope); format: cell-based; conditions: 125 μg/ml SBA, 3 days
[4] = tested on: patients having a cancer or tumor; experiment: Clinical trial, intravenous SBA in patients having a cancer or tumor; format: in vivo, human
From the text: SBA can be administered, not only intravenously, but also into an abdominal cavity or subcutaneously, or orally.

[5] = tested on: patient having a cancer or tumor; conditions: intravenous 1.5 to 6 g per day per adult; cited from earlier work

With `O=C1O[C@H]([C@@H]2COC(c3ccccc3)O2)C(O)=C1O` (stereo partly drawn) [SBA, mono-sodium 5,6-O-benzylidene-L-ascorbate] the “survived cells induced to differentiate into neurocytes having neuritis” value ([1]; 500 μg/ml SBA) was 20 to 30%, the “morphological change / formation of pseudo-ganglia” value ([1]; SBA treatment 48 hours) was “IMR-32 cells form pseudo-ganglia” and the “CD50 (proliferation of C6 cells)” value (rat glioma C6 cells [2]) was 250 µg/mL. The “morphological change of C6 cells” value (rat glioma C6 cells [3]) was “Formation of astrocytes was recognized”, the “effect on cancer in patient with attendant rheumatoid arthritis” value ([4]; 3 mg/body once per day) was “the cancer reduces” and the “differentiation of cancer or tumor cells in patients” value ([4]; intravenous 1 mg/body to 10 mg/body once per day per adult, 35 examples) was “induce differentiation of cancer cells or tumor cells into normal cells efficiently”. For the same compound, the “differentiation of malignant cells forming new blood vessel” value ([4]; patient with augmented new blood vessel in eye and eyeground hemorrhage, intravenous 1 to 10 mg/body once per day) was “induces differentiation of malignant cells forming new blood vessel into normal cells” and the “total dimension of the carcinoma or tumor” value [5] was “decreases”.

From patent US20040254123A1, “Malignant cell differentiation inducer compositions and utilization of the same” (priority 2001, published 2004)
